From patent publication US20090047221A1 (NIPRI LIMITED, priority 2004, published 2009)

System: cancer cell line MDA-MB-468
Assay: Combination index with known cancer drugs against proliferation (Calcusyn software)
Format: cell-based
Conditions: MDA-MB-468
In short: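 MTT proliferation assay: cells exposed continuously to drug for 96 h at 37° C, 5% CO2, screening range 1-200 μg/ml, then MTT 4 h, DMSO solubilisation, absorbance 570 nm. Synergy with known drugs given as combination index (Calcusyn).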

With `CC1(C)Cc2ccc(C(=O)N[C@@H](Cc3ccccc3)C(=O)O)c(O)c2C(=O)O1` [ALM-74, L-Phenyl Alanine Amide of Compound ALM-73] the “Combination Index” value (Cisplatin 1 × 10^−2 mol/L, ALM-74 0.1 μg/ml) was 0.006, the “Combination Index” value (Cisplatin 1 × 10^−2 mol/L, ALM-74 0.5 μg/ml) was 0.008 and the “Combination Index” value (Cisplatin 1 × 10^−2 mol/L, ALM-74 1.0 μg/ml) was 0.082. For the same compound, the “Combination Index” value (Cisplatin 1 × 10^−2 mol/L, ALM-74 5.0 μg/ml) was 0.130, the “Combination Index” value (Cisplatin 1 × 10^−3 mol/L, ALM-74 0.1 μg/ml) was “No” and the “Combination Index” value (Cisplatin 1 × 10^−3 mol/L, ALM-74 0.5 μg/ml) was “No”. The “Combination Index” value (Cisplatin 1 × 10^−3 mol/L, ALM-74 1.0 μg/ml) was 0.039, the “Combination Index” value (Cisplatin 1 × 10^−3 mol/L, ALM-74 5.0 μg/ml) was 0.346 and the “Combination Index” value (Cisplatin 1 × 10^−4 mol/L, ALM-74 0.1 μg/ml) was “No”. The “Combination Index” value (Cisplatin 1 × 10^−4 mol/L, ALM-74 0.5 μg/ml) was “No”, the “Combination Index” value (Cisplatin 1 × 10^−4 mol/L, ALM-74 1.0 μg/ml) was 0.061 and the “Combination Index” value (Cisplatin 1 × 10^−4 mol/L, ALM-74 5.0 μg/ml) was 1.031. For the same compound, the “Combination Index” value (Cisplatin 1 × 10^−5 mol/L, ALM-74 0.1 μg/ml) was “No”, the “Combination Index” value (Cisplatin 1 × 10^−5 mol/L, ALM-74 0.5 μg/ml) was “No” and the “Combination Index” value (Cisplatin 1 × 10^−5 mol/L, ALM-74 1.0 μg/ml) was 0.069. For the same compound, the “Combination Index” value (Cisplatin 1 × 10^−5 mol/L, ALM-74 5.0 μg/ml) was 0.778, the “Combination Index” value (Cisplatin 1 × 10^−6 mol/L, ALM-74 0.1 μg/ml) was “No” and the “Combination Index” value (Cisplatin 1 × 10^−6 mol/L, ALM-74 0.5 μg/ml) was “No”. The “Combination Index” value (Cisplatin 1 × 10^−6 mol/L, ALM-74 1.0 μg/ml) was 0.083, the “Combination Index” value (Cisplatin 1 × 10^−6 mol/L, ALM-74 5.0 μg/ml) was “No” and the “Combination Index” value (Cisplatin 1 × 10^−7 mol/L, ALM-74 0.1 μg/ml) was “No”. The “Combination Index” value (Cisplatin 1 × 10^−7 mol/L, ALM-74 0.5 μg/ml) was “No”, the “Combination Index” value (Cisplatin 1 × 10^−7 mol/L, ALM-74 1.0 μg/ml) was 0.092 and the “Combination Index” value (Cisplatin 1 × 10^−7 mol/L, ALM-74 5.0 μg/ml) was “No”. For the same compound, the “Combination Index” value (Cisplatin 1 × 10^−8 mol/L, ALM-74 0.1 μg/ml) was “No”, the “Combination Index” value (Cisplatin 1 × 10^−8 mol/L, ALM-74 0.5 μg/ml) was “No” and the “Combination Index” value (Cisplatin 1 × 10^−8 mol/L, ALM-74 1.0 μg/ml) was 0.091. The “Combination Index” value (Cisplatin 1 × 10^−8 mol/L, ALM-74 5.0 μg/ml) was “No”, the “Combination Index” value (Cisplatin 1 × 10^−9 mol/L, ALM-74 0.1 μg/ml) was 0.895 and the “Combination Index” value (Cisplatin 1 × 10^−9 mol/L, ALM-74 0.5 μg/ml) was “No”. The “Combination Index” value (Cisplatin 1 × 10^−9 mol/L, ALM-74 1.0 μg/ml) was 0.090, the “Combination Index” value (Cisplatin 1 × 10^−9 mol/L, ALM-74 5.0 μg/ml) was “No” and the “Combination Index” value (Doxorubicin 1 × 10^−4 mol/L, ALM-74 0.1 μg/ml) was “No”. For the same compound, the “Combination Index” value (Doxorubicin 1 × 10^−4 mol/L, ALM-74 0.5 μg/ml) was 0.277, the “Combination Index” value (Doxorubicin 1 × 10^−4 mol/L, ALM-74 1.0 μg/ml) was “No” and the “Combination Index” value (Doxorubicin 1 × 10^−4 mol/L, ALM-74 5.0 μg/ml) was “No”. The “Combination Index” value (Doxorubicin 1 × 10^−5 mol/L, ALM-74 0.1 μg/ml) was 0.001, the “Combination Index” value (Doxorubicin 1 × 10^−5 mol/L, ALM-74 0.5 μg/ml) was 0.007 and the “Combination Index” value (Doxorubicin 1 × 10^−5 mol/L, ALM-74 1.0 μg/ml) was 0.376. The “Combination Index” value (Doxorubicin 1 × 10^−5 mol/L, ALM-74 5.0 μg/ml) was 1.069, the “Combination Index” value (Etoposide 1 × 10^−4 mol/L, ALM-74 0.1 μg/ml) was 0.355 and the “Combination Index” value (Etoposide 1 × 10^−4 mol/L, ALM-74 0.5 μg/ml) was 0.402. For the same compound, the “Combination Index” value (Etoposide 1 × 10^−4 mol/L, ALM-74 1.0 μg/ml) was 0.307, the “Combination Index” value (Etoposide 1 × 10^−4 mol/L, ALM-74 5.0 μg/ml) was 0.349 and the “Combination Index” value (Etoposide 1 × 10^−5 mol/L, ALM-74 0.1 μg/ml) was “No”. For the same compound, the “Combination Index” value (Etoposide 1 × 10^−5 mol/L, ALM-74 0.5 μg/ml) was 0.613, the “Combination Index” value (Etoposide 1 × 10^−5 mol/L, ALM-74 1.0 μg/ml) was 0.031 and the “Combination Index” value (Etoposide 1 × 10^−5 mol/L, ALM-74 5.0 μg/ml) was 0.053. The “Combination Index” value (Etoposide 1 × 10^−6 mol/L, ALM-74 0.1 μg/ml) was “No”, the “Combination Index” value (Etoposide 1 × 10^−6 mol/L, ALM-74 0.5 μg/ml) was “No” and the “Combination Index” value (Etoposide 1 × 10^−6 mol/L, ALM-74 1.0 μg/ml) was 0.015. For the same compound, the “Combination Index” value (Etoposide 1 × 10^−6 mol/L, ALM-74 5.0 μg/ml) was 0.200, the “Combination Index” value (Etoposide 1 × 10^−7 mol/L, ALM-74 0.1 μg/ml) was “No” and the “Combination Index” value (Etoposide 1 × 10^−7 mol/L, ALM-74 0.5 μg/ml) was “No”. For the same compound, the “Combination Index” value (Etoposide 1 × 10^−7 mol/L, ALM-74 1.0 μg/ml) was 0.016, the “Combination Index” value (Etoposide 1 × 10^−7 mol/L, ALM-74 5.0 μg/ml) was 0.231 and the “Combination Index” value (Etoposide 1 × 10^−8 mol/L, ALM-74 0.1 μg/ml) was “No”. The “Combination Index” value (Etoposide 1 × 10^−8 mol/L, ALM-74 0.5 μg/ml) was “No”, the “Combination Index” value (Etoposide 1 × 10^−8 mol/L, ALM-74 1.0 μg/ml) was 0.016 and the “Combination Index” value (Etoposide 1 × 10^−8 mol/L, ALM-74 5.0 μg/ml) was 0.261. For the same compound, the “Combination Index” value (Etoposide 1 × 10^−9 mol/L, ALM-74 0.1 μg/ml) was “No”, the “Combination Index” value (Etoposide 1 × 10^−9 mol/L, ALM-74 0.5 μg/ml) was “No” and the “Combination Index” value (Etoposide 1 × 10^−9 mol/L, ALM-74 1.0 μg/ml) was 0.019. The “Combination Index” value (Etoposide 1 × 10^−9 mol/L, ALM-74 5.0 μg/ml) was 0.251, the “Combination Index” value (Etoposide 1 × 10^−10 mol/L, ALM-74 0.1 μg/ml) was 0.724 and the “Combination Index” value (Etoposide 1 × 10^−10 mol/L, ALM-74 0.5 μg/ml) was “No”. For the same compound, the “Combination Index” value (Etoposide 1 × 10^−10 mol/L, ALM-74 1.0 μg/ml) was 0.022, the “Combination Index” value (Etoposide 1 × 10^−10 mol/L, ALM-74 5.0 μg/ml) was 0.265 and the “Combination Index” value (Irinotecan 1 × 10^−3 mol/L, ALM-74 0.1 μg/ml) was 0.916. For the same compound, the “Combination Index” value (Irinotecan 1 × 10^−3 mol/L, ALM-74 0.5 μg/ml) was 0.121, the “Combination Index” value (Irinotecan 1 × 10^−3 mol/L, ALM-74 1.0 μg/ml) was “No” and the “Combination Index” value (Irinotecan 1 × 10^−3 mol/L, ALM-74 5.0 μg/ml) was “No”. The “Combination Index” value (Irinotecan 1 × 10^−4 mol/L, ALM-74 0.1 μg/ml) was 0.189, the “Combination Index” value (Irinotecan 1 × 10^−4 mol/L, ALM-74 0.5 μg/ml) was 0.302 and the “Combination Index” value (Irinotecan 1 × 10^−4 mol/L, ALM-74 1.0 μg/ml) was 0.051. For the same compound, the “Combination Index” value (Irinotecan 1 × 10^−4 mol/L, ALM-74 5.0 μg/ml) was 0.051, the “Combination Index” value (Irinotecan 1 × 10^−5 mol/L, ALM-74 0.1 μg/ml) was “No” and the “Combination Index” value (Irinotecan 1 × 10^−5 mol/L, ALM-74 0.5 μg/ml) was “No”. For the same compound, the “Combination Index” value (Irinotecan 1 × 10^−5 mol/L, ALM-74 1.0 μg/ml) was 0.025, the “Combination Index” value (Irinotecan 1 × 10^−5 mol/L, ALM-74 5.0 μg/ml) was 0.616 and the “Combination Index” value (Irinotecan 1 × 10^−6 mol/L, ALM-74 0.1 μg/ml) was 0.518. For the same compound, the “Combination Index” value (Irinotecan 1 × 10^−6 mol/L, ALM-74 0.5 μg/ml) was “No”, the “Combination Index” value (Irinotecan 1 × 10^−6 mol/L, ALM-74 1.0 μg/ml) was 0.055 and the “Combination Index” value (Irinotecan 1 × 10^−6 mol/L, ALM-74 5.0 μg/ml) was 0.589. The “Combination Index” value (Irinotecan 1 × 10^−7 mol/L, ALM-74 0.1 μg/ml) was 0.067, the “Combination Index” value (Irinotecan 1 × 10^−7 mol/L, ALM-74 0.5 μg/ml) was “No” and the “Combination Index” value (Irinotecan 1 × 10^−7 mol/L, ALM-74 1.0 μg/ml) was 0.054. For the same compound, the “Combination Index” value (Irinotecan 1 × 10^−7 mol/L, ALM-74 5.0 μg/ml) was 0.726, the “Combination Index” value (Irinotecan 1 × 10^−8 mol/L, ALM-74 0.1 μg/ml) was 0.046 and the “Combination Index” value (Irinotecan 1 × 10^−8 mol/L, ALM-74 0.5 μg/ml) was “No”. The “Combination Index” value (Irinotecan 1 × 10^−8 mol/L, ALM-74 1.0 μg/ml) was 0.066, the “Combination Index” value (Irinotecan 1 × 10^−8 mol/L, ALM-74 5.0 μg/ml) was 0.895 and the “Combination Index” value (Irinotecan 1 × 10^−9 mol/L, ALM-74 0.1 μg/ml) was 0.049. The “Combination Index” value (Irinotecan 1 × 10^−9 mol/L, ALM-74 0.5 μg/ml) was “No”, the “Combination Index” value (Irinotecan 1 × 10^−9 mol/L, ALM-74 1.0 μg/ml) was 0.078 and the “Combination Index” value (Irinotecan 1 × 10^−9 mol/L, ALM-74 5.0 μg/ml) was 0.973. For the same compound, the “Combination Index” value (Irinotecan 1 × 10^−10 mol/L, ALM-74 0.1 μg/ml) was 0.22, the “Combination Index” value (Irinotecan 1 × 10^−10 mol/L, ALM-74 0.5 μg/ml) was “No” and the “Combination Index” value (Irinotecan 1 × 10^−10 mol/L, ALM-74 1.0 μg/ml) was 0.086. The “Combination Index” value (Irinotecan 1 × 10^−10 mol/L, ALM-74 5.0 μg/ml) was 0.720.
